Measurements reported in patent US12685735B2 (Foghorn Therapeutics Inc., priority 2020, dated 2026).
Like-named read-outs stand apart in the source and are kept apart here.

Legend:
BRM = BRM (Homo sapiens, UniProt P51531); test: ATPase catalytic activity assay of BRM (ADP-Glo); type: biochemical; conditions: for IC50: read-out: BRM IC50 (μM)*
Outline: (§1)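 Once the enzyme reaction finished, residual ATP is removed with ADP-Glo Reagent over 40 minutes at room temperature. Kinase Detection Reagent then converts product ADP into ATP during a 60-minute room-temperature incubation, and the luciferase signal is read.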

BRG-1 = BRG-1 (Homo sapiens, UniProt P51532); test: ATPase catalytic activity assay of BRG-1 (ADP-Glo); type: biochemical; conditions: ATPase catalytic activity, ADP-Glo; for IC50: read-out: BRG1 IC50 (μM)*; for Emax: read-out: BRG1 Max % Inhibition
Outline: as §1

Sequence of BRG-1 (P51532 whole entry): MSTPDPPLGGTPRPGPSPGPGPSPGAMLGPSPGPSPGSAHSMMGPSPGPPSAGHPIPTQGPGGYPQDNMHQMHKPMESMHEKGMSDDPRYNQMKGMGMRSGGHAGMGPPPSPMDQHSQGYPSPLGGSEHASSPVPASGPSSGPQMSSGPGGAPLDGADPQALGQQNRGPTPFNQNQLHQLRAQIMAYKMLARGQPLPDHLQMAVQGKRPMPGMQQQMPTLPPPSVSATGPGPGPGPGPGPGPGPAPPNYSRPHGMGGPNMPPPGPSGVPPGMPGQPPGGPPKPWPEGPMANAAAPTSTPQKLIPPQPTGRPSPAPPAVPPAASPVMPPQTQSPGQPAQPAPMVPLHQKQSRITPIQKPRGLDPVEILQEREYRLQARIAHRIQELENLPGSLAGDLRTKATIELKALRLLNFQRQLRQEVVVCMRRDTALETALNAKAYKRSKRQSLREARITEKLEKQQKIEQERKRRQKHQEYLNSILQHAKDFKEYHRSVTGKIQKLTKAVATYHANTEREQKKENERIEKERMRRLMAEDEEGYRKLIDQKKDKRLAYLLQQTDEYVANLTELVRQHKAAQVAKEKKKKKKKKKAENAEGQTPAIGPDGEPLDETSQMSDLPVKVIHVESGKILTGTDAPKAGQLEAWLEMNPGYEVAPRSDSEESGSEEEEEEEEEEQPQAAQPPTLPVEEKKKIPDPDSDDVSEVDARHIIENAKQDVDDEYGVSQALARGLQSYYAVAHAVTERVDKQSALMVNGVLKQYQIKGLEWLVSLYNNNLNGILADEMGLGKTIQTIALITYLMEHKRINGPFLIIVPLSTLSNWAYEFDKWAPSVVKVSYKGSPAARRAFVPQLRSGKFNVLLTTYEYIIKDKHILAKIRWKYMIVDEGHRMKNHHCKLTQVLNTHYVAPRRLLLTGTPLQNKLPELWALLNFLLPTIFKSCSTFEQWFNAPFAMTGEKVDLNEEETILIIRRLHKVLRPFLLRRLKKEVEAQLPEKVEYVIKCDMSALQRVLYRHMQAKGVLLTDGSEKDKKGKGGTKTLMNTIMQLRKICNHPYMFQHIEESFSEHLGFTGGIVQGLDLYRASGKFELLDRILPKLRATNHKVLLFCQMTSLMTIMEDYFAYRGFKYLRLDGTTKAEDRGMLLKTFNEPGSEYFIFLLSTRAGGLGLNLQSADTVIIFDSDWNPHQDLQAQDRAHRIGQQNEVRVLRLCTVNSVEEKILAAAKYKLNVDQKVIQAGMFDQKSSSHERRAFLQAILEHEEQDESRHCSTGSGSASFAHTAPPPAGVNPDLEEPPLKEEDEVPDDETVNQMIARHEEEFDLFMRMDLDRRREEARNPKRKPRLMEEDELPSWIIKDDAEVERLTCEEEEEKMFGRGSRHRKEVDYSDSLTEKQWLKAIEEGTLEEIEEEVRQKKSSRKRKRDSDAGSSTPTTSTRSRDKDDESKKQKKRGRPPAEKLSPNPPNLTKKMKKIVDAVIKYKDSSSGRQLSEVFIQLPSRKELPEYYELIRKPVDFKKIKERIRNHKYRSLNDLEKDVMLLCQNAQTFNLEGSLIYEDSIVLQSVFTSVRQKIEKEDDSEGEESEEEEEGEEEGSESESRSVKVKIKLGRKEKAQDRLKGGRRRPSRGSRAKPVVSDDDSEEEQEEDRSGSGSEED
Sequence of BRM (P51531 whole entry): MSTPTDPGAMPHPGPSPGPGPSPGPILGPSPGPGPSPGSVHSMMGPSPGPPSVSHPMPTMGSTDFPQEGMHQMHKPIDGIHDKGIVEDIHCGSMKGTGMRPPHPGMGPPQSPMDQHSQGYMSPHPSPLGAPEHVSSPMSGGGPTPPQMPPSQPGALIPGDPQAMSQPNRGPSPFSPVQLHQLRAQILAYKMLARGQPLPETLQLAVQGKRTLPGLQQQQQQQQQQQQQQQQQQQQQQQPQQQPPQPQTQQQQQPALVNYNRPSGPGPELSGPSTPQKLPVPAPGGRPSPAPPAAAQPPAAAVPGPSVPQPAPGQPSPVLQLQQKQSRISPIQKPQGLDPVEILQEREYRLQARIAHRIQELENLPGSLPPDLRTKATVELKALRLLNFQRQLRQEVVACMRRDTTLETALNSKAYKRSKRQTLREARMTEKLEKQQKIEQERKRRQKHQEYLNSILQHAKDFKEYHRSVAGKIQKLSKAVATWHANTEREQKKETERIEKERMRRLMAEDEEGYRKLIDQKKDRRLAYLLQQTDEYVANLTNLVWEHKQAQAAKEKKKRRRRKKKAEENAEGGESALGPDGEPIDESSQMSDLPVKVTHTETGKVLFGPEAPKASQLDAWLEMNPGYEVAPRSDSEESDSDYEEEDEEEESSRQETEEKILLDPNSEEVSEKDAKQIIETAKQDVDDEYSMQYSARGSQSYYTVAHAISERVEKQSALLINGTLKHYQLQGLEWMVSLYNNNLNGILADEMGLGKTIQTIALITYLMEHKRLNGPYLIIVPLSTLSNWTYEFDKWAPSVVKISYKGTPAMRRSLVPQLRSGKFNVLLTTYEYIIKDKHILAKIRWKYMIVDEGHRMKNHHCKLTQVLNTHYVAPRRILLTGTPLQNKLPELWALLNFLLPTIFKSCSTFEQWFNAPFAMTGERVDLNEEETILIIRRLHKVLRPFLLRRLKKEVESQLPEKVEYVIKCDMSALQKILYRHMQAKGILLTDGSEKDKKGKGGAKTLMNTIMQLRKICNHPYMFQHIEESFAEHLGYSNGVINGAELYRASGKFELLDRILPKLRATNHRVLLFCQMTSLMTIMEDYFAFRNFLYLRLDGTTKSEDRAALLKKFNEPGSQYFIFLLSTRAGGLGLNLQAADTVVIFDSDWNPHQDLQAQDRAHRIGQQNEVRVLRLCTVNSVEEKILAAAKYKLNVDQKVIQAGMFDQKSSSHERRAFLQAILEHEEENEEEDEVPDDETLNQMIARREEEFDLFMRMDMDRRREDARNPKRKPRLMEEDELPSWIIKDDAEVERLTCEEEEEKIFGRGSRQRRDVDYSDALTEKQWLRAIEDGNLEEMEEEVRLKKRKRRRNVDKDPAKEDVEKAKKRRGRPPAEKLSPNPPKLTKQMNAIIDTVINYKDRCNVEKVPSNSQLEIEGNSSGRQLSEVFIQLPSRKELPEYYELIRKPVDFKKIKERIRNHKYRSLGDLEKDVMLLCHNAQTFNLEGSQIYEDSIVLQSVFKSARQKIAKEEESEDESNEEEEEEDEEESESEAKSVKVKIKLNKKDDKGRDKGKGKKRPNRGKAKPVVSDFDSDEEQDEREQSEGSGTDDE

SMILES	BRM Max % Inhibition (BRM; 30 nM BRM, 400 μM ATP) [%]	IC50 (BRM; 30 nM BRM, 400 μM ATP) [µM]	IC50 (BRG-1; 30 nM BRG-1, 400 μM ATP) [µM]	Emax (BRG-1; 30 nM BRG-1, 400 μM ATP) [%]	BRM Max % Inhibition (BRM) [%]	IC50 (BRM) [µM]	IC50 (BRG-1) [µM]	Emax (BRG-1) [%]
CC1(C#N)CCOc2ccc(C(=O)NCC(=O)Nc3nc(-c4cccc(C(F)F)n4)cs3)cc21 (stereo in doubt) [Compound 430, (S)-4-cyano-N-(2-((4-(6-(difluoromethyl)pyridin-2-yl)thiazol-2-yl)amino)-2-oxoethyl)-4-methylchromane-6-carboxamide]	>95	0.1 to 1	1 to 5	> 95				
CC(C)S(=O)(=O)c1cccc(C(=O)NCC(=O)Nc2nc(-c3cccc(-c4cc(Cl)cc(Cl)c4)c3)cs2)c1 [Compound 30, N-(2-((4-(3′,5′-dichloro-[1,1′-biphenyl]-3-yl)thiazol-2-yl)amino)-2-oxoethyl)-3-(isopropylsulfonyl)benzamide]					>90	0.1 to 1	1 to 5	
COC(=O)N1CCC[C@@H](c2csc(NC(=O)CNC(=O)c3ccc4c(c3)[C@@](C)(C#N)COC4)n2)C1 (stereo in doubt) [Compound 354, methyl (R)-3-(2-(2-((S)-4-cyano-4-methylisochromane-6-carboxamido)acetamido)thiazol-4-yl)piperidine-1-carboxylate]					>95	0.1 to 1	0.1 to 1	> 95
C[C@@H]1CN(c2cccc(-c3csc(NC(=O)CNC(=O)c4ccc5c(c4)[C@@H](CO)CC5)n3)n2)C[C@H](C)O1 [Compound 161, (3S)-N-[2-[[4-[6-[(cis)-2,6-dimethylmorpholin-4-yl]-2-pyridyl]thiazol-2-yl]amino]-2-oxo-ethyl]-3-(hydroxymethyl)indane-5-carboxamide]					>95	< 0.1	0.1 to 1	> 80
CC(C)N1CCOc2ccc(C(=O)NCC(=O)Nc3nc(-c4cccc(N5C[C@@H](C)O[C@@H](C)C5)n4)cs3)cc21 [Compound 395, N-(2-((4-(6-((cis)-2,6-dimethylmorpholino)pyridin-2-yl)thiazol-2-yl)amino)-2-oxoethyl)-4-isopropyl-3,4-dihydro-2H-benzo[b][1,4]oxazine-6-carboxamide]					>80	0.1 to 1	> 5	> 80
C[C@@H]1CN(c2cccc(-c3csc(NC(=O)CNC(=O)c4cccc([C@@]5(O)CCOC5)c4)n3)n2)C[C@H](C)O1 [Compound 134, N-[2-[[4-[6-[(cis)-2,6-dimethylmorpholin-4-yl]-2-pyridyl]thiazol-2-yl]amino]-2-oxo-ethyl]-3-[(3S)-3-hydroxytetrahydrofuran-3-yl]benzamide]					>80	0.1 to 1	1 to 5	> 60
C[C@@H]1CN(c2cccc(-c3csc(NC(=O)CNC(=O)c4ccc5c(c4)[C@@]4(CCC[C@@H]4O)CC5)n3)c2)C[C@H](C)O1 [Compound 186, (1R,2S)-N-(2-((4-(3-((cis)-2,6-dimethylmorpholino)phenyl)thiazol-2-yl)amino)-2-oxoethyl)-2-hydroxy-2′,3′-dihydrospiro[cyclopentane-1,1′-indene]-6′-carboxamide]					>95	< 0.1	1 to 5	> 70
C[C@@H]1CN(c2cccc(-c3csc(NC(=O)CNC(=O)c4ccc5c(c4)[C@@H](C)COC5)n3)n2)C[C@H](C)O1 [Compound 320, (R)-N-(2-((4-(6-((cis)-2,6-dimethylmorpholino)pyridin-2-yl)thiazol-2-yl)amino)-2-oxoethyl)-4-methylisochromane-6-carboxamide]					>95	< 0.1	0.1 to 1	> 95
C[C@@H]1CN(c2cccc(-c3csc(NC(=O)CNC(=O)c4cccc([C@]5(C)C[C@@H](O)C5)c4)n3)c2)C[C@H](C)O1 [Compound 392, N-(2-((4-(3-((cis)-2,6-dimethylmorpholino)phenyl)thiazol-2-yl)amino)-2-oxoethyl)-3-((1r,3r)-3-hydroxy-1-methylcyclobutyl)benzamide]					>90	0.1 to 1	> 5	> 90
C[C@@]1(F)COCc2ccc(C(=O)NCC(=O)Nc3nc(-c4ccnc(C5(O)CC5)c4)cs3)cc21 [Compound 330, (S)-4-fluoro-N-(2-((4-(2-(1-hydroxycyclopropyl)pyridin-4-yl)thiazol-2-yl)amino)-2-oxoethyl)-4-methylisochromane-6-carboxamide]					>95	< 0.1	0.1 to 1	> 95
CC(C)(/C(N)=N\O)c1cccc(C(=O)NCC(=O)Nc2nc(-c3cccc(-c4ccncc4)c3)cs2)c1 [Compound 83, (E)-3-(1-amino-1-(hydroxyimino)-2-methylpropan-2-yl)-N-(2-oxo-2-((4-(3-(pyridin-4-yl)phenyl)thiazol-2-yl)amino)ethyl)benzamide]					>90	1 to 5	> 5	> 50
C[C@@H]1CN(c2cccc(-c3csc(NC(=O)CNC(=O)c4ccc5c(c4)[C@](C)(C#N)CN5C)n3)c2)C[C@H](C)O1 [Compound 369, (S)-3-cyano-N-(2-((4-(3-((cis)-2,6-dimethylmorpholino)phenyl)thiazol-2-yl)amino)-2-oxoethyl)-1,3-dimethylindoline-5-carboxamide]					>95	< 0.1	< 0.1	> 95
C[C@@H]1CN(c2cccc(-c3csc(NC(=O)CNC(=O)c4ccc(Cl)c(C(C)(C)CO)c4)n3)c2)C[C@H](C)O1 [Compound 244, 4-chloro-N-[2-[[4-[3-[(cis)-2,6-dimethylmorpholin-4-yl]phenyl]thiazol-2-yl]amino]-2-oxo-ethyl]-3-(2-hydroxy-1,1-dimethyl-ethyl)benzamide]					>95	< 0.1	0.1 to 1	> 95
Cn1ncc(-c2cccc(-c3csc(NC(=O)CNC(=O)c4cccc(C(C)(C)CO)c4)n3)c2)n1 [Compound 185, 3-(1-hydroxy-2-methylpropan-2-yl)-N-(2-((4-(3-(2-methyl-2H-1,2,3-triazol-4-yl)phenyl)thiazol-2-yl)amino)-2-oxoethyl)benzamide]					>95	0.1 to 1	1 to 5	> 80
Cc1cc(-c2cccc(-c3csc(NC(=O)CNC(=O)c4cccc(C(C)(C)CN)c4)n3)c2)cc(C)n1 [Compound 66, 3-(1-amino-2-methylpropan-2-yl)-N-(2-((4-(3-(2,6-dimethylpyridin-4-yl)phenyl)thiazol-2-yl)amino)-2-oxoethyl)benzamide]					>95	< 0.1	0.1 to 1	> 90
Cn1cnc2ccc(-c3csc(NC(=O)CNC(=O)c4ccc5c(c4)[C@@](C)(CO)CC5)n3)cc21 [Compound 257, (S)-3-(hydroxymethyl)-3-methyl-N-(2-((4-(1-methyl-1H-benzo[d]imidazol-6-yl)thiazol-2-yl)amino)-2-oxoethyl)-2,3-dihydro-1H-indene-5-carboxamide]					>70	1 to 5	> 5	> 30
Cc1cc(-c2cccc(-c3csc(NC(=O)CNC(=O)c4ccc5c(c4)[C@](C)(CO)CC5)n3)c2)nc(C)n1 [Compound 228, (3R)-N-[2-[[4-[3-(2,6-dimethylpyrimidin-4-yl)phenyl]thiazol-2-yl]amino]-2-oxo-ethyl]-3-(hydroxymethyl)-3-methyl-indane-5-carboxamide]					>95	< 0.1	< 0.1	> 95
C[C@@H]1CN(c2cccc(-c3csc(NC(=O)CNC(=O)c4cccc5c4OCC[C@]5(C)CO)n3)c2)C[C@H](C)O1 [Compound 252, (S)-N-(2-((4-(3-((cis)-2,6-dimethylmorpholino)phenyl)thiazol-2-yl)amino)-2-oxoethyl)-4-(hydroxymethyl)-4-methylchroman-8-carboxamide]					>60	1 to 5	> 5	> 30
Cn1ccc2ccc(-c3csc(NC(=O)CNC(=O)c4cccc(C5(C#N)CCC5)c4)n3)cc2c1=O [Compound 147, 3-(1-cyanocyclobutyl)-N-(2-((4-(2-methyl-1-oxo-1,2-dihydroisoquinolin-7-yl)thiazol-2-yl)amino)-2-oxoethyl)benzamide]					>90	0.1 to 1	1 to 5	> 80
COc1cc(F)cc(-c2csc(NC(=O)C(C)NC(=O)c3ccc4c(c3)[C@](C)(F)COC4)n2)c1 (stereo in doubt) [Compound 334, (S)-4-fluoro-N-((R)-1-((4-(3-fluoro-5-methoxyphenyl)thiazol-2-yl)amino)-1-oxopropan-2-yl)-4-methylisochromane-6-carboxamide]					>95	< 0.1	0.1 to 1	> 95
C[C@@H]1CN(c2cccc(-c3csc(NC(=O)CNC(=O)c4ccc5c(c4)[C@]4(CCO4)COC5)n3)n2)C[C@H](C)O1 [Compound 349, (R)-N-(2-((4-(6-((cis)-2,6-dimethylmorpholino)pyridin-2-yl)thiazol-2-yl)amino)-2-oxoethyl)spiro[isochromane-4,2′-oxetane]-6-carboxamide]					>95	< 0.1	0.1 to 1	> 95
